Test results reported in patent US6476030B1, “Pyrazolo-triazine derivatives as ligands for GABA receptors” (Merck Sharp & Dohme Ltd., priority 1998, dated 2002).

Structure (SMILES) | melting point
CCC(C)(C)c1c(OCc2ncnn2C)nn2c(-c3ccccc3F)nncc12 [Example 34, 3-(1,1-Dimethylpropyl)-7-(2-fluorophenyl)-2-(2-methyl-2H-[1,2,4]triazol-3-ylmethoxy)pyrazolo[1,5-d][1,2,4]triazine] | 89 to 91 °C
Cn1ncnc1COc1nn2c(-c3ccc(F)cc3)nncc2c1C(C)(C)C [Example 37, 3-(1,1-Dimethylethyl)-7-(4-fluorophenyl)-2-(2-methyl-2H-[1,2,4]triazol-3-ylmethoxy)pyrazolo[1,5-d][1,2,4]triazine] | 197 °C
CCn1ncnc1COc1nn2c(-c3ccc(F)cc3)nncc2c1C(C)(C)C [Example 38, 3-(1,1-Dimethylethyl)-2-(2-ethyl-2H-[1,2,4]triazol-3-ylmethoxy)-7-(4-fluorophenyl)pyrazolo[1,5-d][1,2,4]triazine] | 190 °C
CCCn1ncnc1COc1nn2c(-c3ccc(F)cc3)nncc2c1C(C)(C)C [Example 39, 3-(1,1-Dimethylethyl)-7-(4-fluorophenyl)-2-(2-propyl-2H-[1,2,4]triazol-3-ylmethoxy)pyrazolo[1,5-d][1,2,4]triazine] | 154 °C
CCn1ncnc1COc1nn2c(-c3ccccc3F)nncc2c1C(C)(C)CC [Example 40, 3-(1,1-Dimethylpropyl)-2-(2-ethyl-2H-[1,2,4]triazol-3-ylmethoxy)-7-(2-fluorophenyl)pyrazolo[1,5-d][1,2,4]triazine] | 89 to 92 °C
CCC(C)(C)c1c(OCc2ncnn2C)nn2c(-c3c(F)ccc(F)c3F)nncc12 [Example 43, 3-(1,1-Dimethylpropyl)-2-(2-methyl-2H-[1,2,4]triazol-3-ylmethoxy)-7-(2,3,6-trifluorophenyl)pyrazolo[1,5-d][1,2,4]triazine] | 122 to 125 °C
CCn1ncnc1COc1nn2c(-c3ccc(F)cc3)nncc2c1-c1ccccc1F [Example 47, 2-(2-Ethyl-2H-[1,2,4]triazol-3-ylmethoxy)-3-(2-fluorophenyl)-7-(4-fluorophenyl)pyrazolo[1,5-d][1,2,4]triazine] | 179 °C
CCCn1ncnc1COc1nn2c(-c3ccc(F)cc3)nncc2c1-c1ccccc1F [Example 48, 3-(2-Fluorophenyl)-7-(4-fluorophenyl)-2-(2-propyl-2H-[1,2,4]triazol-3-ylmethoxy)pyrazolo[1,5-d][1,2,4]triazine] | 148 °C

Second part, the compound after the results:

melting point | Structure (SMILES)
181 to 183 °C | Cn1ncnc1COc1nn2c(-c3ccccc3F)nncc2c1-c1cccnc1 [Example 35, 7-(2-Fluorophenyl)-2-(2-methyl-2H-[1,2,4]triazol-3-ylmethoxy)-3-(pyridin-3-yl)pyrazolo[1,5-d][1,2,4]triazine]
204 to 206 °C | Cn1ncnc1COc1nn2c(-c3ccco3)nncc2c1-c1ccccc1F [Example 36, 3-(2-Fluorophenyl)-7-(furan-2-yl)-2-(2-methyl-2H-[1,2,4]triazol-3-ylmethoxy)pyrazolo[1,5-d][1,2,4]triazine]
191 °C | Cn1ncnc1COc1nn2c(-c3ccc(F)cc3)nncc2c1-c1ccccc1F [Example 41, 3-(2-Fluorophenyl)-7-(4-fluorophenyl)-2-(2-methyl-2H-[1,2,4]-triazol-3-ylmethoxy)pyrazolo[1,5-d][1,2,4]triazine]
164 to 166 °C | Cn1ncnc1COc1nn2c(-c3cccnc3)nncc2c1-c1ccccc1F [Example 45, 3-(2-Fluorophenyl)-2-(2-methyl-2H-[1,2,4]triazol-3-ylmethoxy)-7-(pyridin-3-yl)pyrazolo[1,5-d][1,2,4]triazine]
214 to 217 °C | CCn1ncnc1COc1nn2c(-c3ccccc3F)nncc2c1-c1ccncc1 [Example 46, 2-(2-Ethyl-2H-[1,2,4]triazol-3-ylmethoxy)-7-(2-fluorophenyl)-3-(pyridin-4-yl)pyrazolo[1,5-d][1,2,4]triazine]
